Values after ≈ are worked out from the molar mass of the structure shown.
Key:
Test in all cases: Broth microdilution MIC in iron-depleted CAMHB (IDM)
Format in all cases: cell-based
[1] = test system: A. baumannii CDC-0083 producing NDM-1, PER-7, OXA-23, and OXA-69; details: Acinetobacter baumannii, read-out: Minimum Inhibitory Concentration, CDC-0083
Outline: (§1)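 Colonies grow 3-5 h in iron-depleted broth at 37° C, are adjusted by OD600 to give 2-8×10^5 CFU/mL, and are added to 2-fold serial compound dilutions. After 16-20 h (Pseudomonas) or 20-24 h (Acinetobacter) at 37° C, the lowest concentration with no visible growth is the MIC.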

P. aeruginosa ATCC 27853 = details: Pseudomonas aeruginosa, ATCC27853, read-out: Minimum Inhibitory Concentration, P. aeruginosa ATCC 27853
Outline: as §1

[2] = test system: A. baumannii CDC-0036 OXA-65, and OXA-24; details: Acinetobacter baumannii, read-out: Minimum Inhibitory Concentration, CDC-0036
Outline: as §1

[3] = test system: P. aeruginosa CDC-0054 producing VIM-4, OXA-50, and PAO; details: Pseudomonas aeruginosa, read-out: Minimum Inhibitory Concentration, P. aeruginosa CDC-0054
Outline: as §1

P. aeruginosa ATCC 35151 = details: Pseudomonas aeruginosa, ATCC35151; iron-depleted MHB (IDM); hyper-permeable strain; read-out: Minimum Inhibitory Concentration, P. aeruginosa ATCC 35151
Outline: as §1

[4] = test system: A. baumannii CDC-0033 producing NDM-1, and OXA-94; details: Acinetobacter baumannii, read-out: Minimum Inhibitory Concentration, CDC-0033
Outline: as §1

A. baumannii ATCC 17978 = details: Acinetobacter baumannii, ATCC17978, read-out: Minimum Inhibitory Concentration, ATCC 17978
Outline: as §1

A. baumannii ATCC 19606 = details: Acinetobacter baumannii, ATCC19606, read-out: Minimum Inhibitory Concentration, ATCC 19606
Outline: as §1

[5] = test system: P. aeruginosa (ΔmexAB-oprM); details: Pseudomonas aeruginosa, read-out: Minimum Inhibitory Concentration, P. aeruginosa ΔmexAB-OprM
Outline: as §1

SMILES: CCN1CCN(C(=O)N[C@@H](C(=O)N[C@H]2Cc3ccc(F)c(C(=O)O)c3OB2O)c2c(Cl)cc(O)c(O)c2F)C(=O)C1=O (single isomer, unassigned) [Example 207]
- MIC [1]: > 128 µg/mL
- MIC (P. aeruginosa ATCC 27853): 2 to 4 µg/mL (≈ 3.27 to 6.55 µM)
- MIC [2]: 2 to 4 µg/mL (≈ 3.27 to 6.55 µM)
- MIC [3]: 2 to 4 µg/mL (≈ 3.27 to 6.55 µM)
- MIC (P. aeruginosa ATCC 35151): 0.25 µg/mL (≈ 0.409 µM)
- MIC [4]: 32 to 64 µg/mL (≈ 52.4 to 105 µM)
- MIC (A. baumannii ATCC 17978): 0.5 to 1 µg/mL (≈ 0.819 to 1.64 µM)
- MIC (A. baumannii ATCC 19606): 0.5 to 1 µg/mL (≈ 0.819 to 1.64 µM)
- MIC [5]: 2 to 4 µg/mL (≈ 3.27 to 6.55 µM)

SMILES: O=C(NCCCN1CCN(C(=O)NC(C(=O)N[C@H]2Cc3cccc(C(=O)O)c3OB2O)c2ncc(O)cc2F)C(=O)C1=O)c1ccc(O)c(O)c1Cl (stereo partly drawn) [Example 1, (3R)-3-(2-(4-(3-(2-chloro-3,4-dihydroxybenzamido)propyl)-2,3-dioxopiperazine-1-carboxamido)-2-(3-fluoro-5-hydroxypyridin-2-yl)acetamido)-2-hydroxy-3,4-dihydro-2H-benzo[e][1,2]oxaborinine-8-carboxylic acid]
- MIC (P. aeruginosa ATCC 27853): 8 to 16 µg/mL (≈ 10.8 to 21.5 µM)
- MIC (P. aeruginosa ATCC 35151): 0.5 to 1 µg/mL (≈ 0.673 to 1.35 µM)
- MIC (A. baumannii ATCC 19606): 2 to 4 µg/mL (≈ 2.69 to 5.38 µM)
- MIC [5]: 2 to 4 µg/mL (≈ 2.69 to 5.38 µM)

SMILES: CS(=O)(=O)N1CCN(C(=O)N[C@@H](C(=O)N[C@H]2Cc3ccc(F)c(C(=O)O)c3OB2O)c2cc(F)c(O)c(O)c2Cl)C1=O (single isomer, unassigned) [Example 189]
- MIC [1]: 32 to 64 µg/mL (≈ 50.6 to 101 µM)
- MIC (P. aeruginosa ATCC 27853): 0.5 to 1 µg/mL (≈ 0.79 to 1.58 µM)
- MIC [2]: 2 to 4 µg/mL (≈ 3.16 to 6.32 µM)
- MIC [3]: 0.5 to 1 µg/mL (≈ 0.79 to 1.58 µM)
- MIC (P. aeruginosa ATCC 35151): 0.25 µg/mL (≈ 0.395 µM)
- MIC [4]: 2 to 4 µg/mL (≈ 3.16 to 6.32 µM)
- MIC (A. baumannii ATCC 17978): 0.25 µg/mL (≈ 0.395 µM)
- MIC (A. baumannii ATCC 19606): 0.5 to 1 µg/mL (≈ 0.79 to 1.58 µM)
- MIC [5]: 0.25 µg/mL (≈ 0.395 µM)

SMILES: NCCN1CCN(C(=O)N[C@@H](C(=O)N[C@H]2Cc3ccc(F)c(C(=O)O)c3OB2O)c2c(F)c(F)c(O)c(O)c2Cl)C(=O)C1=O [Example 226, (R)-3-((R)-2-(4-(2-aminoethyl)-2,3-dioxopiperazine-1-carboxamido)-2-(2-chloro-5,6-difluoro-3,4-dihydroxyphenyl)acetamido)-7-fluoro-2-hydroxy-3,4-dihydro-2H-benzo[e][1,2]oxaborinine-8-carboxylic acid]
- MIC [1]: 2 to 4 µg/mL (≈ 3.11 to 6.21 µM)
- MIC (P. aeruginosa ATCC 27853): 0.5 to 1 µg/mL (≈ 0.777 to 1.55 µM)
- MIC [2]: 8 to 16 µg/mL (≈ 12.4 to 24.9 µM)
- MIC [3]: 2 to 4 µg/mL (≈ 3.11 to 6.21 µM)
- MIC (P. aeruginosa ATCC 35151): 0.25 µg/mL (≈ 0.388 µM)
- MIC [4]: 8 to 16 µg/mL (≈ 12.4 to 24.9 µM)
- MIC (A. baumannii ATCC 17978): 0.5 to 1 µg/mL (≈ 0.777 to 1.55 µM)
- MIC (A. baumannii ATCC 19606): 0.5 to 1 µg/mL (≈ 0.777 to 1.55 µM)
- MIC [5]: 2 to 4 µg/mL (≈ 3.11 to 6.21 µM)

SMILES: CCN1CCN(C(=O)N[C@@H](C(=O)N[C@H]2Cc3cc(Cl)c(F)c(C(=O)O)c3OB2O)c2c(F)cc(O)c(O)c2Cl)C(=O)C1=O [Example 191, (R)-6-chloro-3-((R)-2-(2-chloro-6-fluoro-3,4-dihydroxyphenyl)-2-(4-ethyl-2,3-dioxopiperazine-1-carboxamido)acetamido)-7-fluoro-2-hydroxy-3,4-dihydro-2H-benzo[e][1,2]oxaborinine-8-carboxylic acid]
- MIC [1]: > 128 µg/mL
- MIC (P. aeruginosa ATCC 27853): 2 to 4 µg/mL (≈ 3.1 to 6.2 µM)
- MIC [2]: 32 to 64 µg/mL (≈ 49.6 to 99.2 µM)
- MIC [3]: 2 to 4 µg/mL (≈ 3.1 to 6.2 µM)
- MIC (P. aeruginosa ATCC 35151): 0.25 µg/mL (≈ 0.387 µM)
- MIC [4]: > 128 µg/mL
- MIC (A. baumannii ATCC 17978): 2 to 4 µg/mL (≈ 3.1 to 6.2 µM)
- MIC (A. baumannii ATCC 19606): 8 to 16 µg/mL (≈ 12.4 to 24.8 µM)
- MIC [5]: 0.25 µg/mL (≈ 0.387 µM)

SMILES: O=C(NCCCN1CCN(C(=O)NC(C(=O)N[C@H]2Cc3ccc(F)c(C(=O)O)c3OB2O)c2ncc(O)cc2F)C(=O)C1=O)c1ccc(O)c(O)c1Cl (stereo partly drawn) [Example 3, (3R)-3-(2-(4-(3-(2-chloro-3,4-dihydroxybenzamido)propyl)-2,3-dioxopiperazine-1-carboxamido)-2-(3-fluoro-5-hydroxypyridin-2-yl)acetamido)-7-fluoro-2-hydroxy-3,4-dihydro-2H-benzo[e][1,2]oxaborinine-8-carboxylic acid]
- MIC [1]: 32 to 64 µg/mL (≈ 42.1 to 84.1 µM)
- MIC (P. aeruginosa ATCC 27853): 2 to 4 µg/mL (≈ 2.63 to 5.26 µM)
- MIC [2]: 32 to 64 µg/mL (≈ 42.1 to 84.1 µM)
- MIC [3]: 2 to 4 µg/mL (≈ 2.63 to 5.26 µM)
- MIC (P. aeruginosa ATCC 35151): 0.25 µg/mL (≈ 0.329 µM)
- MIC [4]: 32 to 64 µg/mL (≈ 42.1 to 84.1 µM)
- MIC (A. baumannii ATCC 17978): 8 to 16 µg/mL (≈ 10.5 to 21 µM)
- MIC (A. baumannii ATCC 19606): 32 to 64 µg/mL (≈ 42.1 to 84.1 µM)
- MIC [5]: 0.5 to 1 µg/mL (≈ 0.657 to 1.31 µM)

SMILES: Nc1nc(/C(=N/OC[C@H](NC(=O)c2ccc(O)c(O)c2Cl)C(=O)O)C(=O)N[C@H]2Cc3cccc(C(=O)O)c3OB2O)cs1 [Example 6, (R)-3-((Z)-2-(2-aminothiazol-4-yl)-2-(((S)-2-carboxy-2-(2-chloro-3,4-dihydroxybenzamido)ethoxy)imino)acetamido)-2-hydroxy-3,4-dihydro-2H-benzo[e][1,2]oxaborinine-8-carboxylic acid]
- MIC [1]: 32 to 64 µg/mL (≈ 50.5 to 101 µM)
- MIC (P. aeruginosa ATCC 27853): 0.5 to 1 µg/mL (≈ 0.789 to 1.58 µM)
- MIC [2]: 32 to 64 µg/mL (≈ 50.5 to 101 µM)
- MIC [3]: 0.5 to 1 µg/mL (≈ 0.789 to 1.58 µM)
- MIC (P. aeruginosa ATCC 35151): 0.25 µg/mL (≈ 0.394 µM)
- MIC [4]: 32 to 64 µg/mL (≈ 50.5 to 101 µM)
- MIC (A. baumannii ATCC 17978): 8 to 16 µg/mL (≈ 12.6 to 25.2 µM)
- MIC (A. baumannii ATCC 19606): 32 to 64 µg/mL (≈ 50.5 to 101 µM)
- MIC [5]: 0.5 to 1 µg/mL (≈ 0.789 to 1.58 µM)

Reference: patent US20230114728A1 (Venatorx Pharmaceuticals, Inc., priority 2019, published 2023)
